Data reported in patent US20030143645A1, “Quinone reductase 2 and aldehyde dehydrogenase as therapeutic targets” (priority 2001, published 2003).

Legend:
QR2 = biological target: T1, QR2 (Homo sapiens, UniProt P16083); assay: hQR2 activity assay, enzyme purified from human RBC (Example 1); format: biochemical; set-up: Pure hALDH was eluted with 5 mM NADH and pure hQR2 with 5 mM NMeN; tissue Valley Biomedical (blood); host or cells: human red blood cells; details: purified hQR2 from human RBC; menadione substrate; read-out: Kd(app)
T1 sequence (P16083 1-231): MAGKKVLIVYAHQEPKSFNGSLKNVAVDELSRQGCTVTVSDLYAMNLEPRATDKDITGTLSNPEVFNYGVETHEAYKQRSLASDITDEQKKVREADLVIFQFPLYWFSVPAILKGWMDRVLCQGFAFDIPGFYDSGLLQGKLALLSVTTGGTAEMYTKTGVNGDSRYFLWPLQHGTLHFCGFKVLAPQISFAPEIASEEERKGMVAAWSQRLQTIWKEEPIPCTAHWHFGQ
Procedure: ATP-affinity array chromatography. In whole mouse experiments, the animal (except for its tail, feet, skin and intestines) was frozen in liquid N2 and blended in buffer A containing 50 mM Hepes, pH 7.5, 50 mM NaCl, 10 mM MgCl2, 0.1% NONIDET- P40, 1 mM dithiothreitol, 1 μg/ml leupeptin, 100 μg/ml pefabloc and 10 μg/ml aprotinin. Mouse lysate was clarified by centrifugation for 1 hr at 100,000×g. For infected and non-infected RBC's˜1.5×10^9 cells were mixed with an equal volume of 2×buffer A, rocked for 30 min at 4° C., and clarified by centrifugation for 1 hr at 100,000×g. Supernatants were dialyzed overnight against 50 mM Hepes, pH 7.5, 50 mM NaCl, 10 mM MgCl2 and 1 mM dithiothreitol. […] Lysates were centrifuged twice at 125,000×g for 1 hr at 4° C. […] Pure hALDH was eluted with 5 mM NADH and pure hQR2 with 5 mM NMeN. The eluants were dialyzed overnight at 4° C. against 25 mM Tris pH 8.0 and 1 mM DTT. hALDHl was assayed as described in Table 2. Purified hQR2 was assayed at 22° C. in 100 μM N-methyldihydronicotinamide, 30 μM menadione, 0.1% Triton X-100, 50 mM Tris pH 8.5, 100 μM dicoumarol (unless stated otherwise).
For QR2 Kd apparent values determined using the expression [formula]
The Kd was determined as [formula]
Where Ao=rate in the absence of drug; Aapp=rate+drug; [M]=concentration of menadione.

ALDH1 = biological target: T2, ALDH1 (Homo sapiens, UniProt P00352); assay: ALDH1 HPLC-based activity assay (Example 2); format: biochemical; details: physiological concentrations of NAD+
T2 construct: Purification of native ALDH1, QR2 and QR1; RBC extract was prepared as described above and applied to PQ-Sepharose; tissue Valley Biomedical (blood); host or cells: human red blood cells
T2 sequence (P00352 1-501): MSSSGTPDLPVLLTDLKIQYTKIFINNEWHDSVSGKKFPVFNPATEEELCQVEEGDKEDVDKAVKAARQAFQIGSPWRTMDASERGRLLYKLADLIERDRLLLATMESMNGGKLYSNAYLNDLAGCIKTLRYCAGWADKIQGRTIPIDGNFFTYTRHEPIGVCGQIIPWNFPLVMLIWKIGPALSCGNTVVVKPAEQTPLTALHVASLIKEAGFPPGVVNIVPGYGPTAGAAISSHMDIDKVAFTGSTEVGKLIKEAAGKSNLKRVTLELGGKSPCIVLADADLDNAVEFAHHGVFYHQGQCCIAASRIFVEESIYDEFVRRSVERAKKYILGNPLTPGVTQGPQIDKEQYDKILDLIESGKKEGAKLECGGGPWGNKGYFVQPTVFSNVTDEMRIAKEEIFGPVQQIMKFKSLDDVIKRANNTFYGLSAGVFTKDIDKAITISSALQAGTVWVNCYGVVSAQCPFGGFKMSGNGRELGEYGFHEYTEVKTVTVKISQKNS
Procedure: Purification of native ALDH1, QR2 and QR1. RBC extract was prepared as described above and applied to PQ-Sepharose equilibrated in buffer A. ALDH1 and QR2 were obtained by eluting the column with 5 mM b-NAD^+ and NMeH respectively. QR1 was purified from rabbit liver as previously described (Lind et al, Methods Enzymol. 186:287-301 (1990)). All enzymes were sequenced to confirm their identify and were >90% pure as judged by SDS-PAGE and silver staining.
ALDH1, QR2 and QR1 activity assays. ALDH1 activity was determined using an HPLC-based assay because of the co-absorbance of CQ and NADH at 340 nm. Reaction products were separated with a gradient of acetonitrile in 10 mM triethylamine acetic acid. CQ and NADH peaks were identified by their signature spectra using an online photodiode array detector. QR2 activity was assayed in triplicate with recombinant QR2 (at 96 ng/mL) by measuring the absorbance at 365 nm in a buffer containing 50 mM Tris-HCl, pH 8.5, 50 μM NMeH, 5-30 μM menadione, and 0.1% Triton X-100. […] QR2 K1 values were calculated using KinetAsyst II by fitting the experimental data to the equations of Cleland (Methods Enzymol. 63:103-138 (1979)). […] QR1 IC50 values were calculated using GraphPad Prism.
The quinolines inhibit ALDH1 and QR2. […] Because of the co-absorbance of NADH and CQ at 340 nm, an HPLC based assay was developed to determine the effects of CQ on ALDH1 activity.

Kd (QR2): 24 µM
IC50 (ALDH1): 500 µM
Compound: CCN(CC)CCCC(C)Nc1ccnc2cc(Cl)ccc12 (centres unmarked) [CQ, chloroquine]
